Source: patent publication US20070026071A1, “Magnesium salt proton pump inhibitor dosage forms” (QPharma, LLC, priority 2005, published 2007)
Where two headings read alike, the source gives them in different places.

What was measured:
[1] = Phase solubility study in pH 6.8 buffer (simulated intestinal fluid) and purified water; assay type: physicochemical; details: for Solubility: Active content equivalent to base in pH 6.8 buffer / Solubility: Active content equivalent to base in purified water: ambient temperature (approx. 22° C.), shaken approx. 30 minutes
Experimental: In this study the solubility of Omeprazole Magnesium Trihydrate and Esomeprazole Magnesium Dihydrate active materials in pH 6.8 buffer and purified water was performed. […] A pH 6.8 buffer is prepared as described under the monograph of Omeprazole Delayed Release capsules for dissolution test in United States Pharmacopoeia. Purified water and pH 6.8 buffer were used at ambient temperature (approx. 22° C.).
Samples of actives and tablet dosage form powders were used in the study. Each sample contains approx. 200 mg base equivalent Omeprazole and Esomeprazole as salts and such samples were transferred in to a centrifuge tube containing 20 mL of appropriate medium. Centrifuge tubes containing these suspensions were shaken for approx. 30 minutes on a wrist action shaker and samples were initially filtered through Whatman filter paper and subsequently filtered through 0.45 micron PTFE cartridge filters. The samples were further diluted by pipetting 1.0 mL in to 100 mL volumetric flasks and made up to the volume with appropriate medium. The optical density values were measured using a suitable UV-Visible spectrophotometer at 275 nm wavelength.

[2] = from commercially marketed dosage forms; cited from earlier work
[3] = 25° C., cited from earlier work

Structure (SMILES) | Solubility: Active content equivalent to base in pH 6.8 buffer [1] | fold increased solubility by the fluid bed process as compared to the active when tested alone ([1]; purified water) | Solubility: Active content equivalent to base in purified water ([1]; purified water) | percent bioavailability [2] | other results
COc1ccc2[n-]c([S@@+]([O-])Cc3ncc(C)c(OC)c3C)nc2c1.COc1ccc2[n-]c([S@@+]([O-])Cc3ncc(C)c(OC)c3C)nc2c1.O.O.[Mg+2] [Esomeprazole Magnesium Dihydrate] | 1.17 mg/mL | approx. 1.6 fold | 5020 µg/mL |  | 
Cc1c(OCC(F)(F)F)ccnc1C[S+]([O-])c1nc2ccccc2[nH]1 (stereo not shown) [Lansoprazole, 2-[[[3-methyl-4-(2,2,2-trifluroethoxy)-2-pyridyl]methyl]sulfinyl]benzimidazole] |  |  |  | 80-85% | degradation half-life in aqueous solution ([3]; pH 5.0): approximately 0.5 hour; degradation half-life in aqueous solution ([3]; pH 7.0): approximately 18 hours
COc1ccc2[n-]c([S+]([O-])Cc3ncc(C)c(OC)c3C)nc2c1.COc1ccc2[n-]c([S+]([O-])Cc3ncc(C)c(OC)c3C)nc2c1.O.O.O.[Mg+2] (stereo not shown) [Omeprazole Magnesium Trihydrate] | 0.31 mg/mL | approx. 10 fold | 260 µg/mL |  | fold increased solubility by the fluid bed process as compared to the active when tested alone ([1]; pH 6.8 buffer (simulated intestinal fluid)): 4 fold
COc1ccnc(C[S+]([O-])c2nc3ccc(OC(F)F)cc3[nH]2)c1OC (stereo not shown) [Pantoprazole] |  |  |  | 77% | 
COCCCOc1ccnc(C[S+]([O-])c2nc3ccccc3[nH]2)c1C (stereo not shown) [Rabeprazole] |  |  |  | 52% | 
COc1ccc2[nH]c([S+]([O-])Cc3ncc(C)c(OC)c3C)nc2c1 (stereo not shown) [omeprazole, 2-[2-(3,5-dimethyl-4-methoxy)-pyridylmethylsulfinyl]-(5-methoxy)-benzimidazole] |  |  |  | 30-40% | 
